Here are results for 4 molecules from patent US7541018B2, “Treatment process using somatostatin analogues” (University of Bern, priority 2001, dated 2009).

Holding throughout (experiment): Receptor autoradiography displacement of 125I-[Leu8,D-Trp22,Tyr25]-somatostatin 28 on membrane pellet sections
Holding throughout (type): binding
For orientation: Displacement assays read how much labelled ligand stays bound in the presence of the test substance.

The target of one assay is T1, human sst3 (Homo sapiens, UniProt P32745).
T1 construct: expressed in transfected cells; host or cells: CCL39
To be noted: CCL39 cells stably expressing human sst3; sectioned membrane pellets; read-out: IC50 hsst3. The protocol: (§1) Cell culture CHO-K1 cells stably expressing human sst1 and sst5 were kindly provided by Drs. T. Reisine and G. Singh (University of Pennsylvania, Philadelphia, Pa.) and CCL39 cells stably expressing human sst2, sst3, and sst4 by Dr. D. Hoyer (Novartis Pharma, Basel, Switzerland).
(§2) CHO-K1 cells were grown in Ham's F-12 medium and CCL39 cells in Dulbecco's modified Eagle's medium/Ham's F-12 (1:1) mix, supplemented with 10% fetal bovine serum, 100 μg/mL penicillin and 100 μg/mL streptomycin, in humidified air containing 5% CO2 at 37° C. Geneticin (G418-sulfate; Gibco, USA) was used where necessary to maintain selection pressure at a final concentration of 400 μg/mL for sst2 to sst4—and 285 μg/mL for sst5—expressing cells as described previously (Rens-Domiano S. & Reisine T., Biochemical and functional properties of somatostatin receptors, J. Neurochem., 58:1987-1996 (1992); O'Caroll A. et al., Characterization of cloned human somatostatin receptor SSTR5, Molec. Pharmacol., 46:291-298 (1994); Siehler S. et al., [^125I]Tyr^10-cortistatin14 labels all five somatostatin receptors, Naunyn-Schmiedeberg's Arch. Pharmacol., 357:483-489 (1998).).
(§3) Cells were washed twice with and scraped into ice-cold 0.05 M Tris-CHl (pH 7.4), collected by centrifugation, and homogenized using a rotor/stator slash system (POLYTRON®, Kinematica Inc., Littau, Switzerland) in the same buffer. After centrifugation at 120 g for 5 min at 4° C., the supernatant was collected and centrifuged again at 48,000 g for 30 min at 4° C. The resulting pellet was re-suspended in ice-cold Tris buffer, transferred into a microfuge tube, and centrifuged at 20,000 g for 15 min at 4° C. After withdrawal of the supernatant, the membrane pellet was stored at −80° C.
(§4) Receptor autoradiography was performed on 20 μm thick cryostat (Leitz 1720, Rockleigh, N.J.) sections of the membrane pellets, mounted on microscope slides, and then stored at −20° C.
(§5) IC50 values were calculated after quantification of the data using a computer-assisted image processing system as described previously (Reubi, J. C. et al., Detection of somatostatin receptors in surgical and percutaneous needle biopsy samples of carcinoids and islet cell carcinomas, Cancer Res. 50: 5969-5977 (1990).). Tissue standards (Autoradiographic [^125I] microscales, Amersham) that contain known amounts of isotope, cross-calibrated to tissue-equivalent ligand concentrations were used for quantification (Reubi, J. C., In vitro identification of vasoactive intestinal peptide receptors in human tumors: Implications for tumor imaging, J. Nucl. Med. 36: 1846-1853 (1995).).

Another assay addresses T2, human sst5 (Homo sapiens, UniProt P35346).
T2 construct: expressed in transfected cells; host or cells: CHO-K1
To be noted: CHO-K1 cells stably expressing human sst5; sectioned membrane pellets; read-out: IC50 hsst5. The procedure: as §1, §2, §3, §4, §5

The next assay has as its target T3, human sst4 (Homo sapiens, UniProt P31391).
T3 construct: expressed in transfected cells; host or cells: CCL39
To be noted: CCL39 cells stably expressing human sst4; sectioned membrane pellets; read-out: IC50 hsst4. The protocol:
as §1, §2, §3, §4, §5

The next assay addresses T4, human sst1 (Homo sapiens, UniProt P30872).
T4 construct: expressed in transfected cells; host or cells: CHO-K1
To be noted: CHO-K1 cells stably expressing human sst1; sectioned membrane pellets; read-out: IC50 hsst1. The protocol:
as §1, §2, §3, §4, §5

Another assay addresses T5, human sst2 (Homo sapiens, UniProt P30874).
T5 construct: expressed in transfected cells; host or cells: CCL39
The settings on record: CCL39 cells stably expressing human sst2; sectioned membrane pellets; read-out: IC50 hsst2. The protocol:
as §1, §2, §3, §4, §5

SMILES strings stand for the structures. Bridge positions count the residues as written; N and C are the ends. Square brackets hold non-standard residues; d marks the D form. Peptide text beside a SMILES is read from it. * marks the point of attachment. DOTA = O=C(O)CN1CCN(CC(=O)O)CCN(CC(=O)*)CCN(CC(=O)O)CC1; dDab = NCC[C@@H](N)C(=O)O; GABA = NCCCC(=O)O

T3 sequence (P31391 whole entry): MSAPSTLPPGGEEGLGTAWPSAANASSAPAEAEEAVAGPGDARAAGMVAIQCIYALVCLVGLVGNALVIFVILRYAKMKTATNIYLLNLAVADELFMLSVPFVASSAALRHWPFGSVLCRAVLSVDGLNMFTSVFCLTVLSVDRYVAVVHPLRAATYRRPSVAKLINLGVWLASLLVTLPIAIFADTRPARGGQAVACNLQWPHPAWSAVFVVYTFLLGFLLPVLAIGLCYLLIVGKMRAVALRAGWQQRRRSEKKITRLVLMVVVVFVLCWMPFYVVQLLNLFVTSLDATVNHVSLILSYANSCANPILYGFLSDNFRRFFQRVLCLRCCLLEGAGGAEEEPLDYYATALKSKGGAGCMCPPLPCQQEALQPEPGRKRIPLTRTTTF
T4 sequence (P30872 whole entry): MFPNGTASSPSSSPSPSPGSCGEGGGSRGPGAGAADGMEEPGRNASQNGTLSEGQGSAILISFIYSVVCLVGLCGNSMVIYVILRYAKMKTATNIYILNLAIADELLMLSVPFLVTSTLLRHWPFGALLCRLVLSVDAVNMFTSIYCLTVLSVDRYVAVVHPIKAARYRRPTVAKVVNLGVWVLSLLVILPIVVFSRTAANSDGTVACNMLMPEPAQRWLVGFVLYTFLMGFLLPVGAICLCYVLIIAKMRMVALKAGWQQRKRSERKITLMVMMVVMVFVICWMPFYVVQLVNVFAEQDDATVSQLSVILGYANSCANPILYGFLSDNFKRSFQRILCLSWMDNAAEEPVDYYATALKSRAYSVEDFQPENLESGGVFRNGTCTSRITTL
T2 sequence (P35346 whole entry): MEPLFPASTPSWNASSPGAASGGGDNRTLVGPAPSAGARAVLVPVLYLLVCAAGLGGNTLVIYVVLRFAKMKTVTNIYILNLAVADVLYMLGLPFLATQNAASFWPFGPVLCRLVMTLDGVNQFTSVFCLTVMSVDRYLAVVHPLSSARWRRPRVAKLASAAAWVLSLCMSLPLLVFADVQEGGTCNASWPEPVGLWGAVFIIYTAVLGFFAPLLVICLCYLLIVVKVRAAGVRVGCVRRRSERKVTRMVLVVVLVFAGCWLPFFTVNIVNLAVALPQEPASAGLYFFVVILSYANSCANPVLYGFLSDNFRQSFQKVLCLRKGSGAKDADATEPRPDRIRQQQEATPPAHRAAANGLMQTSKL
T1 sequence (P32745 whole entry): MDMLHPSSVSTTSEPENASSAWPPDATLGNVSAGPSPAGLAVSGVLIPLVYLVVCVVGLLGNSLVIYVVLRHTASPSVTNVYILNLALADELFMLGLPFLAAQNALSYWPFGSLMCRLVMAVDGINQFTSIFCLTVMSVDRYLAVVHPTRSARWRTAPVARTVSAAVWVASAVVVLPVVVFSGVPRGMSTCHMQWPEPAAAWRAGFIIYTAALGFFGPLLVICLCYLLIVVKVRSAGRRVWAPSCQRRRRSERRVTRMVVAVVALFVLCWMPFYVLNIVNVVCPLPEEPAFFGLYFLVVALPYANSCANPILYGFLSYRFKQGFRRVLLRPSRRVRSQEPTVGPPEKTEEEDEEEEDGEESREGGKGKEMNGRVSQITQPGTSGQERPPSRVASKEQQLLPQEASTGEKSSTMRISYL
T5 sequence (P30874 whole entry): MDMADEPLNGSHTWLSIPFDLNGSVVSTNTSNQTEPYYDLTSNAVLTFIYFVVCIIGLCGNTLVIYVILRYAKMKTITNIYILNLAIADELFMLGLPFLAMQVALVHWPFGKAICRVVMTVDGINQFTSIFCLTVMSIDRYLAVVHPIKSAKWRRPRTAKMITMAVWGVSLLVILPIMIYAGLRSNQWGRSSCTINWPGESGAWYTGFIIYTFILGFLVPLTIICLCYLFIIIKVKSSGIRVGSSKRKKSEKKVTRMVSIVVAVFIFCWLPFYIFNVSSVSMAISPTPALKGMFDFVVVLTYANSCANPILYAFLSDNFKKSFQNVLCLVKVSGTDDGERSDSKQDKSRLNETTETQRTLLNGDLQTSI

What is called IC50 is the concentration needed to halve the response being measured. Turning to `C[C@@H](O)[C@@H]1NC(=O)[C@H](CCCCN)NC(=O)[C@@H](Cc2c[nH]c3ccccc23)NC(=O)[C@H](Cc2ccc(O)cc2)NC(=O)[C@H](Cc2ccccc2)NC(=O)[C@H](CCCNC(=N)N)NC(=O)CCCNC(=O)[C@H](Cc2ccccc2)NC1=O` [A with X4 is Tyr and X1 is GABA] (cyclo(F[GABA]RFY[dW]KT); ring closure inferred), the IC50 at human sst3 is 1.7 nM; on human sst5, 0.57 nM; at human sst4 it was 0.68 nM; on human sst1, 10.5 nM.
With `C[C@@H](O)[C@@H]1NC(=O)[C@H](CCCCN)NC(=O)[C@@H](Cc2c[nH]c3ccccc23)NC(=O)[C@H](Cc2ccc(O)cc2)NC(=O)[C@H](Cc2ccccc2)NC(=O)[C@H](CCCNC(=N)N)NC(=O)[C@H](N)CCNC(=O)[C@H](Cc2ccccc2)NC1=O` [A with X4 is Tyr] (H-[dDab]RFY[dW]KTF; lactam 1-C), the IC50 is 2 nM at human sst3; 0.8 nM on human sst5; 2.9 nM at human sst2; 1 nM on human sst4; 24.5 nM on human sst1.
For `C[C@@H](O)[C@@H]1NC(=O)[C@H](CCCCN)NC(=O)[C@@H](Cc2c[nH]c3ccccc23)NC(=O)[C@H](Cc2ccccc2)NC(=O)[C@H](Cc2ccccc2)NC(=O)[C@H](CCCNC(=N)N)NC(=O)[C@H](NC(=O)CN2CCN(CC(=O)O)CCN(CC(=O)O)CCN(CC(=O)O)CC2)CCNC(=O)[C@H](Cc2ccccc2)NC1=O` [A, Z = DOTA] ({DOTA}-[dDab]RFF[dW]KTF; lactam 1-C), in that order: 1.6 nM, 0.8 nM, 3 nM, 0.9 nM and 7.6 nM.
For `C[C@@H](O)[C@@H]1NC(=O)[C@H](CCCCN)NC(=O)[C@@H](Cc2c[nH]c3ccccc23)NC(=O)[C@H](Cc2ccccc2)NC(=O)[C@H](Cc2ccccc2)NC(=O)[C@H](CC(N)=O)NC(=O)CCCNC(=O)[C@H](Cc2ccccc2)NC1=O` [minisomatostatin, reference compound] (cyclo(FF[dW]KTF[GABA]N)), the IC50 was 3.2 nM at human sst3, 6.8 nM at human sst5, 15.3 nM on human sst4 and 172 nM at human sst1.
